The record followed here is patent publication US9096646B2, “CXCR4 receptor compounds” (priority 2008, dated 2015).

Several values for one entry are separate records, joined by “and”; a condition that tells them apart may be missing. Identical values can stand only once. Like-named read-outs stand apart in the source and are kept apart here. Peptide text beside a SMILES is read from it. * marks the point of attachment. Palmitoyl = CCCCCCCCCCCCCCCC(=O)*

For this experiment, the target named is CXCR4 (Homo sapiens, UniProt P61073). The experiment can be described thus: Chemotaxis assay, effect on SDF1-a (CXCL12) induced migration of CCRF-CEM cells. The class given is cell-based. Also on record: a human T-cell ALL line that endogenously expresses CXCR4; endogenous in cells; host or cells: CCRF-CEM (human T-cell ALL line). The settings on record: Table 20, i3 loop, CEM cells; for activity at 0.01 µM / activity at 0.03 µM / activity at 0.1 µM / activity at 0.3 µM / activity at 3 µM / activity at 1 µM: CCRF-CEM; for Peak Ratio: peak test compound/peak control.
Sequence of CXCR4 (P61073 whole entry): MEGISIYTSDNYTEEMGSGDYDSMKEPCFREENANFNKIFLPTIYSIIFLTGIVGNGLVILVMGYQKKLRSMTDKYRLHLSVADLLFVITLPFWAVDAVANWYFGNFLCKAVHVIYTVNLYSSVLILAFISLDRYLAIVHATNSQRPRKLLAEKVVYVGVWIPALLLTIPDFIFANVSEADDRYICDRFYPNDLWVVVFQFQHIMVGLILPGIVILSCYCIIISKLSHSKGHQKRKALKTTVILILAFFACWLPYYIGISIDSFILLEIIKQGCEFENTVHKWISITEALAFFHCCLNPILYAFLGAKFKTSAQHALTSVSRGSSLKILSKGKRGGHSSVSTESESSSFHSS

Where [1] appears, read: conc 1.0 uM, read-out: AUC (% of vehicle).
Where [2] appears, read: conc 1.0 uM, read-out: Max (% of vehicle).

Text: Chemotaxis assays were utilized to determine the effect of compound on the directed migration of cells in response to chemokine. Cells that express a receptor of interest were placed in the upper chamber of a Transwell chemotaxis plate (Corning) and allowed to migrate through a polycarbonate membrane to a lower chamber containing the appropriate receptor-specific ligand. To test for antagonist or potentiating activity, cells were mixed with the desired concentration of compound prior to addition to the upper chamber. Conversely, agonist activity was determined by adding compound in the bottom chamber only without endogenous chemokine. The effect of compound is quantified by several parameters, including the extent of maximum response, the shift of agonist dose-response curves, and the area under the curve.
To measure the CXCR4-dependent migration of cells, the appropriate concentration of CXCL12 (SDF1a) or test compound was diluted in phenol red-free RMPI-1640/20 mM HEPES/0.5% BSA buffer and placed in the bottom chamber of a transwell apparatus. CCRF-CEM cells, a human T-cell ALL line that endogenously expresses CXCR4, were washed twice in buffer and resuspended at 133,000 cells/ml. A 75 μl sample of this suspension is mixed with the test compound of interest and placed in the upper chamber of a 5-micron transwell apparatus.
To initiate cell migration, the assembled transwell plate was placed in a 37° C., 0.5% CO2 incubator for a specified time interval, typically between 30 and 120 minutes. After incubation, the unit was disassembled and the lower chamber placed at −80° C. overnight to facilitate lysis of cells. To quantify migrated cells, plates were thawed at 37° C. in a humidified chamber, and then a sample volume was removed from each well and mixed with an equal volume of CyQuant (Invitrogen) working solution in opaque plates. The fluorescence intensity of each well represents the DNA content and is directly proportional to cell number. […] The plate background control, which included no cells in the upper chamber, was subtracted from all values.

As for `CCCCCCCCCCCCCCCC(=O)N[C@@H](CCCCN)C(=O)N[C@@H](CC(C)C)C(=O)N[C@@H](CO)C(=O)N[C@@H](Cc1cnc[nH]1)C(=O)N[C@@H](CO)C(=O)N[C@@H](CCCCN)C(=O)NCC(=O)N[C@@H](Cc1cnc[nH]1)C(=O)N[C@@H](CCC(N)=O)C(=O)N[C@@H](CCCCN)C(=O)N[C@@H](CCCNC(=N)N)C(=O)N[C@@H](CCCCN)C(=O)N[C@@H](C)C(=O)N[C@@H](CC(C)C)C(=O)N[C@@H](CCCCN)C(N)=O` [Compound 92] (Palmitoyl-KLSHSKGHQKRKALK-NH2), the activity at 0.01 µM runs as follows: (conc 0.01 uM, read-out: AUC (% of vehicle)) 158%; (conc 0.01 uM, read-out: Max (% of vehicle)) 156%. Moreover, the activity at 0.03 µM reads like this: (conc 0.03 uM, read-out: AUC (% of vehicle)) 200%; (conc 0.03 uM, read-out: Max (% of vehicle)) 198%. In addition, the activity at 0.1 µM came to 174% (conc 0.1 uM, read-out: AUC (% of vehicle)) and 169% (conc 0.1 uM, read-out: Max (% of vehicle)). Further, the activity at 0.3 µM by setting is: (conc 0.3 uM, read-out: AUC (% of vehicle)) 180%; (conc 0.3 uM, read-out: Max (% of vehicle)) 165%. The activity at 3 µM was determined as 184% (conc 3.0 uM, read-out: AUC (% of vehicle)) and 176% (conc 3.0 uM, read-out: Max (% of vehicle)). Further, the “Peak Test Compound” value is, setting by setting: (conc 0.01 uM) 0.16 nM; (conc 0.03 uM) 0.16 nM; (conc 0.1 uM) 0.16 nM; (conc 0.3 uM) 0.16 nM; (conc 1.0 uM) 0.2 nM and 0.16 nM; (conc 3.0 uM) 0.8 nM. Besides, the “Peak Ratio” value by setting is: (conc 0.01 uM) 0.2; (conc 0.03 uM) 0.2; (conc 0.1 uM) 0.2; (conc 0.3 uM) 0.2; (conc 1.0 uM) 0.2; (conc 3.0 uM) 1.
As for `CCCCCCCCCCCCCCCC(=O)N[C@@H](CCCCN)C(=O)N[C@@H](CC(C)C)C(=O)N[C@@H](CO)C(=O)N[C@@H](Cc1cnc[nH]1)C(=O)N[C@@H](CO)C(=O)N[C@@H](CCCCN)C(=O)NCC(=O)N[C@@H](Cc1cnc[nH]1)C(=O)N[C@@H](CCC(N)=O)C(=O)N[C@@H](CCCCN)C(=O)N[C@@H](CCCNC(=N)N)C(=O)N[C@@H](CCCCN)C(=O)N[C@@H](C)C(=O)N[C@@H](CC(C)C)C(N)=O` [Compound 93] (Palmitoyl-KLSHSKGHQKRKAL-NH2), under setting [1], the activity at 1 µM was found to be 15.9%. Further, the activity at 1 µM under setting [2] was 54.8%. For the same molecule, where the note is “conc 1.0 uM”, the “Peak Test Compound” value came out at 0.2 nM and the “Peak Ratio” value amounted to 0.2.
On to `CCCCCCCCCCCCCCCC(=O)N[C@@H](CCCCN)C(=O)N[C@@H](CC(C)C)C(=O)N[C@@H](CO)C(=O)N[C@@H](Cc1cnc[nH]1)C(=O)N[C@@H](CO)C(=O)N[C@@H](CCCCN)C(=O)NCC(=O)N[C@@H](Cc1cnc[nH]1)C(=O)N[C@@H](CCC(N)=O)C(=O)N[C@@H](CCCCN)C(=O)N[C@@H](CCCNC(=N)N)C(=O)N[C@@H](CCCCN)C(=O)N[C@@H](C)C(N)=O` [Compound 94] (Palmitoyl-KLSHSKGHQKRKA-NH2), for which the activity at 1 µM under setting [1] is 65.3%. The activity at 1 µM under setting [2] is 80.5%. Also, under “conc 1.0 uM”, the “Peak Test Compound” value is listed as 1 nM and the “Peak Ratio” value is recorded as 1.
Taken in the same sequence, the figures for `CCCCCCCCCCCCCCCC(=O)N[C@@H](CC(C)C)C(=O)N[C@@H](CO)C(=O)N[C@@H](Cc1cnc[nH]1)C(=O)N[C@@H](CO)C(=O)N[C@@H](CCCCN)C(=O)NCC(=O)N[C@@H](Cc1cnc[nH]1)C(=O)N[C@@H](CCC(N)=O)C(=O)N[C@@H](CCCCN)C(=O)N[C@@H](CCCNC(=N)N)C(=O)N[C@@H](CCCCN)C(=O)N[C@@H](C)C(=O)N[C@@H](CC(C)C)C(=O)N[C@@H](CCCCN)C(N)=O` [Compound 95] (Palmitoyl-LSHSKGHQKRKALK-NH2) were 77.5%, 92.1%, 1 nM and 1.
